For series [1] the following is noted: in vivo; cited from earlier work.
Series [2] has as its system Fetal hemoglobin cells (F cells). The experiment in a line: Efficacy study in anemic rhesus monkeys: %F cells. The class given is in vivo. Conditions: for %F cell count: 8-10% before Phase I.
The subject of series [3] is Hemoglobin F. Put plainly: Efficacy study in anemic rhesus monkeys: %Hb F by HPLC. The series is classed as in vivo.
Series [4] concerns y globin chain. Put plainly: Efficacy study in anemic rhesus monkeys: %y globin chain by HPLC. The series is classed as in vivo.
The conditions of series [5]: rhesus monkey, in vivo. The protocol:
The efficacy of compound IIIc administered in conjunction with hydroxyurea was tested on six anemic rhesus monkeys divided into three groups of two each. Each group was studied in two phases, as shown below. Fetal hemoglobin cells (F cells), Hemoglobin F level in total Hemoglobin (%Hb F) and %y globin chain levels were monitored before and after each of the two phases. %F cells were measured according to the protocol described in Betke et al, Blut., 4, pp. 241-9 (1958). %Hb F and %y globin chain synthesis were measured using High Performance Liquid Chromatography (HPLC) according to the protocol described in Huisman, J. Chromagtogr., 418, pp. 277 (1987).

Series [6] relates to retinoblastoma cell lines. As to conditions: Human Y-79 retinoblastoma cell line; cited from earlier work.
Series [7] concerns pancreatic cancer cells. As to conditions: cited from earlier work.
Series [8] concerns colorectal carcinoma cell lines. As to conditions: cited from earlier work.
In series [9] the test system is Erythroleukemic Cells. As to conditions: cited from earlier work.
The test system of series [10] is leukemia. As to conditions: cited from earlier work.
Setting [11] is: Group I (hydroxyurea in Phase I, hydroxyurea + compound IIIc in Phase II).

As for `CCCC(=O)OCOC(=O)C(C)(C)C` [AN-9], the “metabolites / toxic effects” value in series [1] is on record as “elicit metabolites that may produce formaldehyde in vivo, leading to toxic effects in patients”.
Take `CCCC(=O)O[C@@H](C)C(=O)OCC` [Compound IIIc]: the “%F cell count” value in series [2] (Animal 2, group II, end of Phase I (compound IIIc 1 g/kg/day, 5 weeks)) was 15%. Besides, in series [2] (Animal 2, group II, end of Phase II (compound IIIc 1 g/kg/TID, 5 weeks)), the “%F cell count” value is 22%. The “%F cells, change” value in [2] (Groups II and III) is given as “small but significant increase”. Moreover, the “HBf level, change” value in series [3] (Groups II and III) was “no measurable change”. In addition, in series [4] (Groups II and III), the “Y-globin chain level, change” value was “no measurable change”. Further, in [5], the “levels of ALT prior to or during the phases” value is reported as “no detectable difference” and the “levels of the triglycerides prior to or during the phases” value is on record as “no detectable difference”.
Turning to `NC(=O)NO` [Hydroxyurea], the “%F cell count” value in series [2] (Animal 1, group I, end of Phase I (hydroxyurea 50 mg/kg/day, 5 weeks)) was found to be 25%. Also, the “%Hb F, change” value in [3] (setting [11]) is “measurable increase”. For the same compound, the “%y-globin chain level, change” value in series [4] (setting [11]) is recorded as “measurable increase”. In series [5], the “levels of ALT prior to or during the phases” value is “no detectable difference” and the “levels of the triglycerides prior to or during the phases” value was “no detectable difference”.
Regarding `CCCC(=O)[O-].[Na+]` [Sodium butyrate], in series [6], the “apoptosis in retinoblastoma cell lines” value is recorded as “induce apoptosis”. The “antigen expression in pancreatic cancer cells” value in series [7] is recorded as “modify antigen expression”. In addition, the “apoptosis in colorectal carcinoma cell lines” value in series [8] is “induce apoptosis”.
For the compound `CCCC(=O)O` [butyric acid], the “cell differentiation in vitro” value in [9] is recorded as “induces cell differentiation”. In addition, the “effects in leukemia patients” value in series [10] is listed as “promising effects in leukemia patients”.

Source of the values: patent US6225350A, “Butyrate prodrugs derived from lactic acid” (Vertex Pharmaceuticals, Inc., priority 1999, dated 2001).
